Measurements reported in ChEMBL document CHEMBL4507276 (2021).

What was measured:
[1] = target: T1, 5-hydroxytryptamine receptor 2C (Homo sapiens) (UniProt P28335); test: 5HT2CH_AGON Cerep selectivity data (BI); details: filed as agonist, Compound concentration 20.0 uM
T1 sequence (whole entry): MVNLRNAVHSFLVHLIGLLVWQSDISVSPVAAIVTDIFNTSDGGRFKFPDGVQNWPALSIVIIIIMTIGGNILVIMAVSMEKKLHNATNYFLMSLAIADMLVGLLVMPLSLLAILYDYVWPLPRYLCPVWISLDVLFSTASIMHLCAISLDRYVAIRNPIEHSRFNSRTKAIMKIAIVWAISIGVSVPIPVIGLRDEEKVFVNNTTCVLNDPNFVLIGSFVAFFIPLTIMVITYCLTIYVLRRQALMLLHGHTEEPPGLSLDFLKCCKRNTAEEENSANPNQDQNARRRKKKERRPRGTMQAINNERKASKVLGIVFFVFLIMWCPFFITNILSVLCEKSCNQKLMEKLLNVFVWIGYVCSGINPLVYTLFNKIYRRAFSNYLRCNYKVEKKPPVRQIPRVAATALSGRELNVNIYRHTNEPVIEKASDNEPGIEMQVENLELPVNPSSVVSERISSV

[2] = target: T2, Alpha-1A adrenergic receptor (Homo sapiens) (UniProt P35348); test: ALPHA1AH_ANTAG Cerep selectivity data (BI); details: filed as antagonist, Compound concentration 20.0 uM
T2 sequence (whole entry): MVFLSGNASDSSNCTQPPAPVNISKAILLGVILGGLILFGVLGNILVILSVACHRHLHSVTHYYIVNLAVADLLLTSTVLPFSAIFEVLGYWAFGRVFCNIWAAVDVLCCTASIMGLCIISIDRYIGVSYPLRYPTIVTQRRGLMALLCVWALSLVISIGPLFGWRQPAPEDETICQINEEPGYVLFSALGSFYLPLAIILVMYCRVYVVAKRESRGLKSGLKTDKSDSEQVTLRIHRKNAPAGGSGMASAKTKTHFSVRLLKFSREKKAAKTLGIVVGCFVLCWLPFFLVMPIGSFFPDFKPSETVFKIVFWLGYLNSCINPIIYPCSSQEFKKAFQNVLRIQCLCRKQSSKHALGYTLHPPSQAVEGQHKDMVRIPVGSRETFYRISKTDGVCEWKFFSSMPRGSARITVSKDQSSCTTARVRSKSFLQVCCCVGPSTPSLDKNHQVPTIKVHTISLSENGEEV

[3] = target: T3, Alpha-1B adrenergic receptor (Homo sapiens) (UniProt P35368); test: ALPHA1B/HU Cerep selectivity data (BI); details: Compound concentration 20.0 uM
T3 sequence (whole entry): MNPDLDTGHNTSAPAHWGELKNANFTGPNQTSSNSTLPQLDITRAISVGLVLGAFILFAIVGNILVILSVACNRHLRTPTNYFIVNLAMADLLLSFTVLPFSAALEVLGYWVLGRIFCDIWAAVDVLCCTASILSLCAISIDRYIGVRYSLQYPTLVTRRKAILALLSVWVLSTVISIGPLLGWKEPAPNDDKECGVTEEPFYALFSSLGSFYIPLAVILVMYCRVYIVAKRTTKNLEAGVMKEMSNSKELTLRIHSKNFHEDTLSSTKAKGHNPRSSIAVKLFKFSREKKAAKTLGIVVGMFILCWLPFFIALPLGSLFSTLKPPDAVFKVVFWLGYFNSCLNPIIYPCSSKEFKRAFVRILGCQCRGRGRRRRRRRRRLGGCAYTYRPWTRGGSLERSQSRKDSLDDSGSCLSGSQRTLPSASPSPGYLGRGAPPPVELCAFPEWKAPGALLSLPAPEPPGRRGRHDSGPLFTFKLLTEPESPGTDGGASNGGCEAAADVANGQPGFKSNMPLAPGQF

[4] = target: Cannabinoid receptor 1 (Homo sapiens) (UniProt P21554); test: CB1/CENTR/H Cerep selectivity data (BI); details: Compound concentration 20.0 uM
Chain of Cannabinoid receptor 1 (Homo sapiens) (P21554 whole entry): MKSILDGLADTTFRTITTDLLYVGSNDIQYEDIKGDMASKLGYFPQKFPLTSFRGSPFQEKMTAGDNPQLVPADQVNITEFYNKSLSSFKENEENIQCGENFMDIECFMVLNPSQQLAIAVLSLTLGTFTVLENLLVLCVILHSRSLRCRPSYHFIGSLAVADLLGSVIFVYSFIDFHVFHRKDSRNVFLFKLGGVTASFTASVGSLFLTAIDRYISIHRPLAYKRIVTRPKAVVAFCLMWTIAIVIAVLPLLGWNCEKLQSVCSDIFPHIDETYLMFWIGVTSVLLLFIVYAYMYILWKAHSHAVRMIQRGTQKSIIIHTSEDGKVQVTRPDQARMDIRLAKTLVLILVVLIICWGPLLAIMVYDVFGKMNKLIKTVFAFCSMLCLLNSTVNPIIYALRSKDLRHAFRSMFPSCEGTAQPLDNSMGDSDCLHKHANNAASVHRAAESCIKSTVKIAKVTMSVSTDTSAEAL

[5] = target: Mitogen-activated protein kinase 1 (Homo sapiens) (UniProt P28482); test: ERK2(P42MAPK)_CE Cerep selectivity data (BI); details: Compound concentration 20.0 uM
Chain of Mitogen-activated protein kinase 1 (Homo sapiens) (P28482 whole entry): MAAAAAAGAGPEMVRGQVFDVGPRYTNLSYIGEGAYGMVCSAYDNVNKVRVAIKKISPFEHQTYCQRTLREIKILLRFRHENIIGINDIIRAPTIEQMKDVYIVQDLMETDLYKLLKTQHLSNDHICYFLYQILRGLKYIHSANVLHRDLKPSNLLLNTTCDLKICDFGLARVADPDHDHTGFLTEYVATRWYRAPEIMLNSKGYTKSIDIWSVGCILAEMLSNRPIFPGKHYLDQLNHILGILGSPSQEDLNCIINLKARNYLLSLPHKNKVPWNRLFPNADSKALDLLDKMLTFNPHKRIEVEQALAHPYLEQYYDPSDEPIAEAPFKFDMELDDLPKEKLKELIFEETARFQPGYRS

[6] = target: Sodium channel regulatory subunit beta-1 (Rattus norvegicus) (UniProt Q00954); test: NA+/SITE2/R Cerep selectivity data (BI); details: Compound concentration 20.0 uM
Chain of Sodium channel regulatory subunit beta-1 (Rattus norvegicus) (Q00954 whole entry, canonical isoform): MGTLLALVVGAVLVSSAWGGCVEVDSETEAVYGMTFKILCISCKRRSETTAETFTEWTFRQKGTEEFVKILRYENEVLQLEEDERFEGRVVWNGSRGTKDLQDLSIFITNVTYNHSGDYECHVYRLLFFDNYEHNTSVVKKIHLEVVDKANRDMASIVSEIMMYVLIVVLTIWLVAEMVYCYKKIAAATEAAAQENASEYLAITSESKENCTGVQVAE

[7] = target: ATP-sensitive inward rectifier potassium channel 1 isoform X1 (Mesocricetus auratus) (UniProt A0A1U8CU73); test: K+/KATP/HA Eurofins-Panlabs selectivity data (BI); details: Compound concentration 10.0 uM
[8] = target: Platelet-activating factor receptor (Homo sapiens) (UniProt P25105); test: PAF/H Eurofins-Panlabs selectivity data (BI); details: Compound concentration 10.0 uM
[9] = target: Neuropeptide Y receptor type 1 (Homo sapiens) (UniProt P25929); test: Y1/HU Eurofins-Panlabs selectivity data (BI); details: Compound concentration 10.0 uM
Chain of Neuropeptide Y receptor type 1 (Homo sapiens) (P25929 whole entry): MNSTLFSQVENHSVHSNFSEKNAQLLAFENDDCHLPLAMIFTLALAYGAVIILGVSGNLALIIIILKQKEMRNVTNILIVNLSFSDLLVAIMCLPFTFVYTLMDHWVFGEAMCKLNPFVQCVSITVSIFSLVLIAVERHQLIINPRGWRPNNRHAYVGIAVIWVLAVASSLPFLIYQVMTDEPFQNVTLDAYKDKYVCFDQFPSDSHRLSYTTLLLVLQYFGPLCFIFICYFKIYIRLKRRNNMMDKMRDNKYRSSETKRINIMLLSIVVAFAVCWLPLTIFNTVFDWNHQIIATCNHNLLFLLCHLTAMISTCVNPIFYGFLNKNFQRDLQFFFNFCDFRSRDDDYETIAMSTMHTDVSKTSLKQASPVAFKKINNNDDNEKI

[10] = target: Tyrosine-protein kinase ABL1 (Homo sapiens) (UniProt P00519); test: ABL1 Invitrogen selectivity data (BI); details: Compound concentration 3.0 uM
Chain of Tyrosine-protein kinase ABL1 (Homo sapiens) (P00519 whole entry): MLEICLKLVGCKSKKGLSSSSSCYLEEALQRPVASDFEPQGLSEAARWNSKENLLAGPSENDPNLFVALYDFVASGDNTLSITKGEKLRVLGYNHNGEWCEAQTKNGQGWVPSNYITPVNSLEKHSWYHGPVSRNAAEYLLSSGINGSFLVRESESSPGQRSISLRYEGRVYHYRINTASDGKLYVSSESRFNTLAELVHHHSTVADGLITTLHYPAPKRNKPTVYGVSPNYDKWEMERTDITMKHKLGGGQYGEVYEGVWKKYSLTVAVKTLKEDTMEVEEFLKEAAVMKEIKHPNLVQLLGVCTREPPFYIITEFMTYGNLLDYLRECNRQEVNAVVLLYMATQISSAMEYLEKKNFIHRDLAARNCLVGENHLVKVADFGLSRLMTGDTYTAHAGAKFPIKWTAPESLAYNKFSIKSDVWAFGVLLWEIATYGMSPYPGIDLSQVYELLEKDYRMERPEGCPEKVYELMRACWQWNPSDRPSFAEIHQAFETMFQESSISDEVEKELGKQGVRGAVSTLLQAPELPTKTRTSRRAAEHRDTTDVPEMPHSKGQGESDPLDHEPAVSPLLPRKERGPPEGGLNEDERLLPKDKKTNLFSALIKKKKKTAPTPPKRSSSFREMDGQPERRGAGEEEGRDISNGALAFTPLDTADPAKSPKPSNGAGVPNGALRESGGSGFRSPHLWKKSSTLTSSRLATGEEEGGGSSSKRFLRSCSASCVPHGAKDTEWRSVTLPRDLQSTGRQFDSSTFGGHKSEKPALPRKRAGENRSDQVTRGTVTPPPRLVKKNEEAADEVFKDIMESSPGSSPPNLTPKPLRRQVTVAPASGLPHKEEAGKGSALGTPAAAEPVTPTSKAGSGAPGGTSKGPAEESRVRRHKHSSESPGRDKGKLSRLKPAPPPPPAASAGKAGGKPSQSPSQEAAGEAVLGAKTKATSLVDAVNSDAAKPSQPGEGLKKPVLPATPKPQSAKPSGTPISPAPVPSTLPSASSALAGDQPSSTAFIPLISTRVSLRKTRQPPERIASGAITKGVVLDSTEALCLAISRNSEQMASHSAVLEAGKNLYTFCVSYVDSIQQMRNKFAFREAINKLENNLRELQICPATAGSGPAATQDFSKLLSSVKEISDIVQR

[11] = target: T4, G protein-coupled receptor kinase 3 (Homo sapiens) (UniProt P35626); test: ADRBK2 Invitrogen selectivity data (BI); details: Compound concentration 3.0 uM
T4 sequence (whole entry): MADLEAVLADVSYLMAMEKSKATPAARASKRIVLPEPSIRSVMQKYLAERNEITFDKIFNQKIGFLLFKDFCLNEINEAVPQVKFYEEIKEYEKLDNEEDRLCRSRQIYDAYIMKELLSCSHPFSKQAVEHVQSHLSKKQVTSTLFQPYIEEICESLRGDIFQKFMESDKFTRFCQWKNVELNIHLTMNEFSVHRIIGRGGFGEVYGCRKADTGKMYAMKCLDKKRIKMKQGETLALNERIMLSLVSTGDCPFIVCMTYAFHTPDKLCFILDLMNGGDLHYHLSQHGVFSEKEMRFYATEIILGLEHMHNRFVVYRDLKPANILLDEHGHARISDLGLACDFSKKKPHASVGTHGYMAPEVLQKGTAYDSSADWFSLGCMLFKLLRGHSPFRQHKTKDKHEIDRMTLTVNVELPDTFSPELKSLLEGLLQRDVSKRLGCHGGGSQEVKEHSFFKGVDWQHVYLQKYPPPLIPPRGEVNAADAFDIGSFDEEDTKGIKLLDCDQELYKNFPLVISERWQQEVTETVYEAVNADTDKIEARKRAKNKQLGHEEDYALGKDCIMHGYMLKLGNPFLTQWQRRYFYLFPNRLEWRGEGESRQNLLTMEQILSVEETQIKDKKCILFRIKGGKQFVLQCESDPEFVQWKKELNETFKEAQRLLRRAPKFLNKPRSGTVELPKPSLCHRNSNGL

[12] = target: Tyrosine-protein kinase receptor UFO (Homo sapiens) (UniProt P30530); test: AXL Invitrogen selectivity data (BI); details: Compound concentration 3.0 uM
Chain of Tyrosine-protein kinase receptor UFO (Homo sapiens) (P30530 whole entry): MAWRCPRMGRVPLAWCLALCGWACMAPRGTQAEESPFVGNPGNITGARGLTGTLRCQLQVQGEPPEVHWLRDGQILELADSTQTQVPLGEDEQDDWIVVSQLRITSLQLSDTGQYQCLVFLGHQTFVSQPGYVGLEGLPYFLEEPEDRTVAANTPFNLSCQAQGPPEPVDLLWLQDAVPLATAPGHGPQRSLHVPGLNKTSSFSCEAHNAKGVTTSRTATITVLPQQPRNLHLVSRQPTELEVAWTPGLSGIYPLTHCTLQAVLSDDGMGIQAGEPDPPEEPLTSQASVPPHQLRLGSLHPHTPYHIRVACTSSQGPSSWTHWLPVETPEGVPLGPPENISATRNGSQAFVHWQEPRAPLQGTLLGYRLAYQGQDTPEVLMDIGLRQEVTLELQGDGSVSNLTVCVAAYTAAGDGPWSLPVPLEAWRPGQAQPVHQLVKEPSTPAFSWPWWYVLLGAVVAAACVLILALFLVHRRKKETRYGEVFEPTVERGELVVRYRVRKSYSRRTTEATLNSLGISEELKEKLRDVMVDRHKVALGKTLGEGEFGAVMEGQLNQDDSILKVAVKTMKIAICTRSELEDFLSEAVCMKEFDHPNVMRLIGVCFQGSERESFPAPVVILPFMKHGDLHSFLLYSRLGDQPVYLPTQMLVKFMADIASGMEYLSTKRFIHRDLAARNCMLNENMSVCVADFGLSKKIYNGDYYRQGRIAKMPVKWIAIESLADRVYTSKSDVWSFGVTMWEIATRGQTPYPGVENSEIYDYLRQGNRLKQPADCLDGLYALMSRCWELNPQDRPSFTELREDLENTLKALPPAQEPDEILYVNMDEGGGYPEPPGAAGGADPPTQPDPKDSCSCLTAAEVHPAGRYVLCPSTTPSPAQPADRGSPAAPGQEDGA

[13] = target: Myosin light chain kinase, smooth muscle (Homo sapiens) (UniProt Q15746); test: MYLK Invitrogen selectivity data (BI); details: Compound concentration 3.0 uM
[14] = target: Protein kinase C epsilon type (Homo sapiens) (UniProt Q02156); test: PRKCE Invitrogen selectivity data (BI); details: Compound concentration 3.0 uM
Chain of Protein kinase C epsilon type (Homo sapiens) (Q02156 whole entry): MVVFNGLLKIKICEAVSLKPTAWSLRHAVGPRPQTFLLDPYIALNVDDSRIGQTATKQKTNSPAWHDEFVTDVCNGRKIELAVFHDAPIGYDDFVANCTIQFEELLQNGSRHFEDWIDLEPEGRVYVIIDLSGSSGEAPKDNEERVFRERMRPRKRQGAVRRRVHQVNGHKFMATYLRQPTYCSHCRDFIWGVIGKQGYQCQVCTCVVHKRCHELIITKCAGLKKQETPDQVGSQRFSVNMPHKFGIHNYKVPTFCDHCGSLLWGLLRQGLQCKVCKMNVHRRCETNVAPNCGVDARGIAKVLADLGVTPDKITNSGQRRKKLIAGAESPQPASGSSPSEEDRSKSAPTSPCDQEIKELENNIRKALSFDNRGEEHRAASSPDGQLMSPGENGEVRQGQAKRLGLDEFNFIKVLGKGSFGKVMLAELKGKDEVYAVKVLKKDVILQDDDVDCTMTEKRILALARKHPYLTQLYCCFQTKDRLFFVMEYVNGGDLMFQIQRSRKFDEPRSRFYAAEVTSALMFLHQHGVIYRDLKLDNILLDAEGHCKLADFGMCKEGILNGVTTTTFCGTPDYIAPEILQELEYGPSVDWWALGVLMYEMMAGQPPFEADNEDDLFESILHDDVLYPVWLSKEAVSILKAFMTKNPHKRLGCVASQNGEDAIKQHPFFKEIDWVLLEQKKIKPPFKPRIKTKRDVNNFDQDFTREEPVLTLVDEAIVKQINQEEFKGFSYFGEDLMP

[15] = target: RAF proto-oncogene serine/threonine-protein kinase (Homo sapiens) (UniProt P04049); test: RAF1_Y_D Invitrogen selectivity data (BI); details: Compound concentration 3.0 uM
Chain of RAF proto-oncogene serine/threonine-protein kinase (Homo sapiens) (P04049 whole entry): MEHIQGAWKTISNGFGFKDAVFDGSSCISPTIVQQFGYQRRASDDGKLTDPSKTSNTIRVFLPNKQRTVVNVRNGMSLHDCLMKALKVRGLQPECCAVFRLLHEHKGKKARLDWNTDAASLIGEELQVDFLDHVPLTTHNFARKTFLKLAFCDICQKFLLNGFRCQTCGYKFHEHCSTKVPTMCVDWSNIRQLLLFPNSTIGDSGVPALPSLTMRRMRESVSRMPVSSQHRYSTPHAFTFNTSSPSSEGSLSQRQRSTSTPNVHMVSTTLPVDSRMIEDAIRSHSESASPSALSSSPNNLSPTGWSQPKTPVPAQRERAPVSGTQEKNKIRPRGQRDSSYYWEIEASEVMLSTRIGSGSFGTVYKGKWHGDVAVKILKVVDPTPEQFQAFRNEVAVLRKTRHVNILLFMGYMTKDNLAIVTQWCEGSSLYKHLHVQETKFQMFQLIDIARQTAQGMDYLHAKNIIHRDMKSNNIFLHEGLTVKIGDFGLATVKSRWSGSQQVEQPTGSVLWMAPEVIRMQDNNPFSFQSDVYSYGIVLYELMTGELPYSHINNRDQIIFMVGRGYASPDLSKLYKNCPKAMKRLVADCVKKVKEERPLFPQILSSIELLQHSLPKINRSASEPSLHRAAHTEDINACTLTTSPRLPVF

Measured: residual activity

CN(C)C(=O)Cn1cc(-c2nc([C@@](C)(c3ccc(-c4cnc(N)nc4)cc3)C3CC3)no2)cn1 [BI 665915]
inactive: [1] 90% | [2] 99% | [3] 120% | [4] 88% | [5] 114% | [6] 107% | [7] 97% | [8] 71% | [9] 109% | [10] 84% | [11] 100% | [12] 95.5% | [13] 100% | [14] 86.5% | [15] 98%
